One experiment deals with A. baumannii Ab16. Briefly: BMD susceptibility test. Format: cell-based, Acinetobacter baumannii. Particulars: unit assumed.
The subject of another experiment is S. aureus Sa22. The experiment is described as follows: BMD susceptibility test. The format is cell-based, Staphylococcus aureus. Particulars: unit assumed.
The subject of experiment [1] is Enterococcus faecium EFM26. The experiment is described as follows: VITEK drug sensitivity test. The format is cell-based. To be noted: unit assumed.
The test system of a further experiment is K. pneumoniae Kp6. Briefly: FaAST (FDAA metabolic labeling). The format is cell-based, Klebsiella pneumoniae. To be noted: unit assumed. Put shortly: (§1)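 Bacteria at OD600=0.05 in CAMHB mixed with antibiotic dilutions plus Cy5-DAA probe at 0.15 mM final, then incubated 2 h in the dark. Cell-wall labeling fluorescence measured by flow cytometry after PBS dilution.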

For a further experiment, the system named is K. pneumoniae Kp9. Briefly: FaAST (FDAA metabolic labeling). Format: cell-based, Klebsiella pneumoniae. Particulars: unit assumed. The gist of the method: as §1
The test system of another experiment is E. faecium Ef28. The experiment is described as follows: FaAST (FDAA metabolic labeling method). Format: cell-based, Enterococcus faecium. To be noted: unit assumed. As for the experimental part:
Take the colony to be tested that has been cultured overnight on the plate and fully mix it in normal saline to make a uniform bacterial solution. Dilute it into Cation-Adjusted Mueller Hinton Broth (CAMHB) culture medium to make a bacterial solution with OD600=0.05. • 2. Add 45 μl antibiotic solutions of different concentrations to 96-well plates (see Table 1 for antibiotic concentration gradient settings). • 3. Add 50 μl of the bacterial solution prepared in step 1 to the 96-well plate and mix well. • 4. Add 5 μl of 10 mM Cy5-DAA probe (final concentration 0.15 mM, see FIG. 1 for its structure) into each well, mix well, and cultivate in dark for 2 hours. • 5. Add 200 μl After PBS solution is diluted, the fluorescence intensity of each sample is detected by flow cytometry. […] The MIC (minimum inhibitory concentration) can be obtained by referring to this curve.

The subject of experiment [2] is alveolar lavage fluid sample 0204, A. baumannii. Briefly: BMD susceptibility test of patient alveolar lavage fluid. Format: cell-based, Acinetobacter baumannii. Particulars: unit assumed.
The subject of experiment [3] is Pseudomonas aeruginosa PAE853. The experiment is described as follows: FaAST with DAA-Cy5-2 probe. Format: cell-based. Particulars: unit assumed. As for the experimental part:
(§2) With reference to the flow chart of the rapid detection method of antimicrobial susceptibility test based on FDAA metabolic markers shown in FIG. 3, FDAA is used for the detection of antimicrobial susceptibility test of alveolar lavage fluid. The specific experimental steps are as follows: • 1. Mix bronchoalveolar lavage fluid (BALF, 10 ml) of patients with hospital acquired pneumonia with cation regulated broth medium (CAMHB, 10 ml) of twice the concentration to prepare the bacterial fluid to be tested. • 2. Add 45 μl antibiotic solutions of different concentrations to the 96-well plate separately (see Table 1 for antibiotic concentration gradient settings). • 3. Add 50 μl of the bacterial solution prepared in step 1 to the 96-well plate and mix well. • 4. Add 5 μl of 10 mM Cy5-DAA probe (final concentration 0.15 mM, see FIG. 1 for its structure) into each well, mix well, and then cultivate in dark for 2 hours. • 5. Add 200 μl PBS solution for dilution, and then use flow cytometry to detect the fluorescence intensity of each sample.
(§3) The specific steps are the same as in Example 5. […] The minimum inhibitory concentration of antibiotics was obtained according to the fluorescence signal intensity of flow detection, and the statistical results are shown in Table 7.

Experiment [4] deals with Acinetobacter baumannii ABA16. The experiment is described as follows: FaAST with DAA-Cy5-2 probe. Format: cell-based. To be noted: unit assumed. As for the experimental part:
as §2, §3

The test system of experiment [5] is Pseudomonas aeruginosa PAE2. Briefly: VITEK drug sensitivity test. The format is cell-based. To be noted: unit assumed.
In a further experiment the test system is Ec ATCC 25922. The experiment is described as follows: FaAST (FDAA metabolic labeling). The format is cell-based, Escherichia coli. Particulars: unit assumed. The gist of the method: (§4)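 Bacteria diluted to OD600=0.05 in CAMHB were exposed to an antibiotic concentration series with Cy5-DAA probe […] for 2 h in the dark. Per-sample fluorescence was read by flow cytometry after PBS dilution. MIC was taken from the antibiotic concentration–fluorescence curve.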

A further experiment deals with E. coli Ec11. The experiment is described as follows: FaAST (FDAA metabolic labeling). Format: cell-based, Escherichia coli. Particulars: unit assumed. Put shortly:
as §4

Experiment [6] has as its system bacteria contained in alveolar lavage fluid. Briefly: FDAA metabolic labeling susceptibility test of alveolar lavage fluid (Cy5-DAA probe). Format: cell-based. Particulars: alveolar lavage fluid of patients with hospital acquired pneumonia, 2 hours. As for the experimental part:
as §2

Experiment [7] deals with Enterococcus faecium EFM26. Briefly: FaAST with DAA-Tetra probe. The format is cell-based. Particulars: unit assumed. As for the experimental part: (§5) The specific experimental steps are as follows: • 1. The tested colonies cultured overnight on the plate were picked and mixed thoroughly in 2× Cation-Adjusted Mueller Hinton Broth medium (2×CAMHB) to make bacterial suspension with turbidity of OD600=0.1. • 2. […] Add 50 μL of the bacterial solution prepared in step 1 (the final concentration of the bacterial solution is OD600=0.05) to the 96-well plate, and add 5 μL of 3 mM DAA-Tetra probe (the final concentration is 0.15 mM), mix well, and incubate in the dark at 37° C. 120 rpm for 2 hours. • 4. After culture, dilute the mixed bacterial solution 10 times with PBS solution, and detect the fluorescence intensity of each sample with flow cytometry. The flow detection result is shown in FIG. 14-19, and the arrow is for the MIC value. The minimum inhibitory concentration of antibiotics was obtained according to the fluorescence signal intensity of flow detection, and the statistical results are shown in Table 6.

In experiment [8] the test system is Pseudomonas aeruginosa PAE2. Briefly: FaAST with DAA-Tetra probe. The format is cell-based. Particulars: unit assumed. As for the experimental part:
as §5

Experiment [9] has as its system Acinetobacter baumannii ABA19. Briefly: FaAST with DAA-Tetra probe. To be noted: unit assumed. The format is cell-based. How it is done: as §5

Values after ≈ are worked out from the molar mass of the structure shown.

On to `C[C@H]1COc2c(N3CCN(C)CC3)c(F)cc3c(=O)c(C(=O)O)cn1c23` [Levofloxacin, levofloxacin], for which the BMD (MIC) was 16 µg/mL in the experiment on A. baumannii Ab16, 32 µg/mL in the experiment on S. aureus Sa22 and 0.5 µg/mL in experiment [2]. Also, the MIC, VITEK was at least 256 µg/mL in [1] and 0.5 µg/mL (≈ 1.38 µM) in experiment [5]. Also, the FaAST (MIC) was 0.5 µg/mL in the experiment on K. pneumoniae Kp6; 128 µg/mL in the experiment with K. pneumoniae Kp9; 64 µg/mL in the experiment on E. faecium Ef28; at most 0.25 µg/mL in the experiment with Ec ATCC 25922; 0.5 µg/mL in the experiment with E. coli Ec11. In addition, the MIC, FaAST came to 0.5 µg/mL (≈ 1.38 µM) in experiment [3]; 32 µg/mL (≈ 88.6 µM) in [4]; 64 µg/mL (≈ 177 µM) in experiment [7]; 0.5 µg/mL (≈ 1.38 µM) in [8]; 0.5 µg/mL (≈ 1.38 µM) in experiment [9]. In addition, the “MIC, FDAA” value in [6] is at least 32 µg/mL.

The values are drawn from patent US20240240224A1, “FLUORESCENT D-TYPE AMINO ACID METABOLISM MARKER-BASED METHOD FOR DETECTING ANTIBACTERIAL DRUG SENSITIVITY TEST” (priority 2020, published 2024).
